Experiment: logP by HPLC on reversed-phase column (C 18), EEC Directive 79/831 Annex V.A8
Assay type: physicochemical
Details: C 18, 40° C., 0.1% aqueous formic acid and acetonitrile
Method: Temperature: 40° C.; Mobile phases: 0.1% aqueous formic acid and acetonitrile; linear gradient from 10% acetonitrile to 90% acetonitrile.

Structure (SMILES)	logPa
C=CCN(C)C=Nc1cc(C)c(Oc2ccc(C#N)cn2)cc1C [Example 37]	1.56
CCN(C)C=Nc1cc(C)c(Oc2cc(C(F)(F)F)c(F)c(F)n2)cc1C [Example 62]	2.31
CCN(C)C=Nc1cc(C)c(Oc2cc(-c3ccccc3Cl)c(C)cn2)cc1C [Example 15]	2.58
CCN(C)C=Nc1ccc(Oc2cc(C(F)(F)F)cc(Cl)n2)cc1C [Example 4]	2.20
CCN(C)C=Nc1ccc(Oc2ncc(C(F)(F)F)cc2Cl)cc1C [Example 2]	2.21
CCN(C)C=Nc1ccc(Oc2ccc(Cl)cn2)cc1C [Example 5]	1.58
Cc1cc(Oc2cc(Cl)cc(C(C)C)n2)c(C)cc1N=CN1CCCCC1 [Example 53]	2.34
CCCc1cc(CCC)nc(Oc2cc(C)c(N=CN(C)CC)cc2C)c1 [Example 30]	2.97
Cc1cc(Oc2ccnc(C(F)(F)F)c2)c(C)cc1N=CN1CCCC1 [Example 80]	1.69
CCCN(C)C=Nc1cc(C)c(Oc2cc(Cl)cc(C(C)C)n2)cc1C [Example 54]	2.35
Cc1cc(Oc2ccc(C)c(Cl)n2)c(C)cc1N=CN1CCCCC1 [Example 50]	2.21
CCN(C)C=Nc1ccc(Oc2cc(Cl)ccn2)cc1C [Example 3]	1.50
CCN(C)C=Nc1cc(C)c(Oc2cc(C#N)ccn2)cc1C [Example 31]	1.42
CCN(C)C=Nc1cc(C)c(Oc2ccc(I)cn2)cc1C [Example 14]	2.10
CCc1nccc(Oc2cc(C)c(N=CN3CCCCC3)cc2C)c1Cl [Example 75]	1.56
CCN(C)C=Nc1cc(C)c(Oc2cc(Cl)cc(C)n2)cc1C [Example 23]	1.58
Cc1cc(Oc2cc(C(F)(F)F)cc(Cl)n2)c(C)cc1N=CN(C)C(C)C [Example 12]	2.52
CCN(C)C=Nc1cc(C)c(Oc2cc(C(F)(F)F)cc(C)n2)cc1C [Example 25]	2.19
CCN(C)C=Nc1cc(C)c(Oc2ccc(C)nc2)cc1C [Example 65]	0.60
Cc1cc(Oc2ncc(Cl)cc2Cl)c(C)cc1N=CN(C)C(C)C [Example 32]	2.24
Cc1cc(Oc2ccc(C#N)cn2)c(C)cc1N=CN1CCCC1 [Example 39]	1.46
CCCN(C)C=Nc1cc(C)c(Oc2cc(Cl)cc(CC)n2)cc1C [Example 42]	2.00
CCCN(C)C=Nc1cc(C)c(Oc2ccnc(Cl)c2)cc1C [Example 72]	1.56
CCc1cc(Cl)cc(Oc2cc(C)c(N=CN3CCCCC3)cc2C)n1 [Example 40]	2.04
Cc1cc(Oc2ccnc(C(F)(F)F)c2)c(C)cc1N=CN1CCCCC1 [Example 79]	1.78
CCN(C)C=Nc1cc(C)c(Oc2ncc(C(F)(F)F)cc2Cl)cc1C [Example 44]	2.15

Structure (SMILES)	logPa
CCN(C)C=Nc1cc(C)c(Oc2ccnc(Cl)c2)cc1C [Example 69]	1.45
Cc1cc(Oc2cc(C(F)(F)F)cc(Cl)n2)c(C(C)(C)C)cc1N=CN(C)C(C)C [Example 20]	3.17
CCN(C)C=Nc1cc(C)c(Oc2cc(C(F)(F)F)ccn2)cc1C [Example 27]	1.96
Cc1cc(Oc2ccc(C(F)(F)F)c(Cl)n2)c(C)cc1N=CN(C)C(C)C [Example 13]	2.51
CCc1cc(Cl)cc(Oc2cc(C)c(N=CN(C)CC)cc2C)n1 [Example 48]	1.98
Cc1cc(Oc2ccc(C#N)cn2)c(C)cc1N=CN1CCCCC1 [Example 38]	1.58
CCN(C)C=Nc1cc(C(C)C)c(Oc2cc(C(F)(F)F)cc(Cl)n2)cc1C [Example 24]	2.87
CCN(C)C=Nc1ccc(Oc2ccc(C(F)(F)F)cn2)cc1C [Example 9]	1.79
CCN(C=Nc1cc(C)c(Oc2cc(C(F)(F)F)cc(Cl)n2)cc1C)CC [Example 18]	2.59
Cc1cc(Oc2ccnc(Cl)c2)c(C)cc1N=CN1CCCC1 [Example 71]	1.52
CCN(C)C=Nc1cc(C)c(Oc2ccc(C#N)cn2)cc1C [Example 35]	1.47
CCN(C)C=Nc1cc(C)c(Oc2ccnc(C(F)(F)F)c2)cc1C [Example 77]	1.75
CCN(C)C=Nc1cc(C)c(Oc2cccc(Cl)n2)cc1C [Example 26]	1.78
CCN(C)C=Nc1cc(C)c(Oc2cccnc2C)cc1C [Example 66]	1.56
CCN(C)C=Nc1cc(C)c(Oc2ccc(C(F)(F)F)c(Cl)n2)cc1C [Example 11]	2.11
Cc1cc(Oc2cccc(Cl)n2)c(C)cc1N=CN1CCCC1 [Example 46]	1.81
CCN(C)C=Nc1cc(C)c(Oc2cccc(-c3ccc(Cl)cc3)n2)cc1C [Example 45]	2.66
CCN(C)C=Nc1cc(C)c(Oc2ccc(C(F)(F)F)c(Cl)n2)cc1C [Example 6]	2.36
CCc1cc(Cl)cc(Oc2cc(C)c(N=CN3CCCC3)cc2C)n1 [Example 41]	1.95
Cc1cc(Oc2cccc(Cl)n2)c(C)cc1N=CN1CCCCC1 [Example 47]	1.96
CCCN(C)C=Nc1cc(C)c(Oc2ccc(C#N)cn2)cc1C [Example 36]	1.63
CCN(C)C=Nc1cc(C)c(Oc2ncc(Cl)cc2Cl)cc1C [Example 28]	2.00
CCN(C)C=Nc1cc(C)c(Oc2ccc(C(F)(F)F)cn2)cc1C [Example 10]	1.86
CCN(C)C=Nc1cc(C)c(Oc2cc(Cl)cc(C(C)C)n2)cc1C [Example 33]	2.18
C=CCN(C)C=Nc1cc(C)c(Oc2ccnc(CC)c2Cl)cc1C [Example 73]	1.51
C=CCN(C)C=Nc1cc(C)c(Oc2ccnc(Cl)c2)cc1C [Example 81]	1.74

Structure (SMILES)	logPa
CCN(C)C=Nc1ccc(Oc2cc(-c3ccccc3Cl)c(C)cn2)cc1C [Example 16]	2.39
CCN(C)C=Nc1ccc(Oc2ccc(I)cn2)cc1C [Example 17]	1.87
Cc1cc(Oc2cc(Cl)cc(C(C)C)n2)c(C)cc1N=CN(C)C(C)C [Example 34]	2.34
CCCN(C)C=Nc1cc(C)c(Oc2cc(C(F)(F)F)c(F)c(F)n2)cc1C [Example 63]	2.48
Cc1cc(Oc2cc(C(F)(F)F)cc(Cl)n2)c(C(C)C)cc1N=CN(C)C(C)C [Example 21]	2.97
Cc1cc(Oc2cccc(Br)n2)c(C)cc1N=CN1CCCCC1 [Example 59]	2.06
CCN(C)C=Nc1cc(C)c(Oc2cc(Cl)ccn2)cc1C [Example 56]	1.75
CCN(C)C=Nc1cc(C)c(Oc2cccc(C(F)(F)F)n2)cc1C [Example 61]	1.98
CCN(C)C=Nc1cc(C)c(Oc2cccc(Br)n2)cc1C [Example 57]	1.89
CCCN(C)C=Nc1cc(C)c(Oc2ccnc(CC)c2Cl)cc1C [Example 74]	1.59
Cc1cc(Oc2ccc(C)c(Cl)n2)c(C)cc1N=CN1CCCC1 [Example 52]	2.05
Cc1cc(Oc2cc(C(F)(F)F)cc(Cl)n2)ccc1N=CN(C)C(C)C [Example 7]	2.22
CCCN(C)C=Nc1cc(C)c(Oc2cccc(Br)n2)cc1C [Example 58]	2.04
CCc1nccc(Oc2cc(C)c(N=CN3CCCC3)cc2C)c1Cl [Example 76]	1.43
CCCN(C)C=Nc1cc(C)c(Oc2cc(C(F)(F)F)cc(Cl)n2)cc1C [Example 19]	2.66
CCN(C)C=Nc1cc(C)c(Oc2ccc(C)c(Cl)n2)cc1C [Example 49]	2.01
CCN(C)C=Nc1cc(C)c(Oc2ccc(Cl)cn2)cc1C [Example 8]	1.84
CCCN(C)C=Nc1cc(C)c(Oc2ccnc(C(F)(F)F)c2)cc1C [Example 78]	1.75
Cc1cc(Oc2cccc(Br)n2)c(C)cc1N=CN1CCCC1 [Example 60]	1.90
Cc1cc(Oc2ncc(C(F)(F)F)cc2Cl)c(C)cc1N=CN(C)C(C)C [Example 43]	2.29
CCCN(C)C=Nc1cc(C)c(Oc2ccc(C)c(Cl)n2)cc1C [Example 51]	2.17
CCN(C)C=Nc1cc(C(C)(C)C)c(Oc2cc(C(F)(F)F)cc(Cl)n2)cc1C [Example 22]	2.83
CCN(C)C=Nc1cc(C)c(Oc2cncc(Cl)c2)cc1C [Example 67]	1.82
CCCN(C)C=Nc1cc(C)c(Oc2ncc(Cl)cc2Cl)cc1C [Example 29]	2.22
Cc1cc(Oc2ccnc(Cl)c2)c(C)cc1N=CN1CCCCC1 [Example 70]	1.66
Cc1cc(Oc2cc(Cl)cc(C(C)C)n2)c(C)cc1N=CN1CCCC1 [Example 55]	2.22

Same assay, conditions: pH 2.3, C 18

Structure (SMILES)	log P (pH 2.3)
Cc1cc(Oc2cncc(Cl)c2)c(C)cc1N [4-(3-chlorpyridyl-5-oxy)-2,5-xylidine]	1.83
CCc1nccc(Oc2cc(C)c(N)cc2C)c1Cl [4-(2-Ethyl-3-chloropyridyl-4-oxy)-2,5-xylidine]	1.66
Cc1cc([N+](=O)[O-])c(C)cc1Oc1cncc(Cl)c1 [4-(3-chlorpyridyl-5-oxy)-2,5-dimethylnitrobenzene]	3.61
CCN(C)C=Nc1cc(C)c(Oc2cc(C(F)(F)F)cc(Cl)n2)cc1C [Example 1, N-Ethyl-N-methyl-N′-[4-(2-chlor-4-trifluormethylpyridyl-6-oxy)-2,5-xylyl]form-amidine]	2.39
CCc1nccc(Oc2cc(C)c(N=CN(C)CC)cc2C)c1Cl [Example 68, N-Ethyl-N-methyl-N′-[4-(2-ethyl-3-chloropyridyl-4-oxy)-2,5-xylyl]form-amidine]	1.47
CCN(C)C=Nc1cc(C)c(Oc2cncc(Cl)c2)cc1C [Example 64, N-Ethyl-N-methyl-N′-[4-(3-chlorpyridyl-5-oxy)-2,5-xylyl]formamidine]	1.70

Reference: US7994334B2, “Fungicide pyridinyloxy substituted phenylamidine derivatives” (Bayer Cropscience AG, priority 2005, dated 2011)
